{"source": "ChEMBL document CHEMBL5303765", "about": "“Data for DCP probe BAY-7081” (2023)", "key": {"[1]": {"biological_target": "5-hydroxytryptamine receptor 1D (Homo sapiens) (UniProt P28221)", "sequence (P28221 whole entry)": "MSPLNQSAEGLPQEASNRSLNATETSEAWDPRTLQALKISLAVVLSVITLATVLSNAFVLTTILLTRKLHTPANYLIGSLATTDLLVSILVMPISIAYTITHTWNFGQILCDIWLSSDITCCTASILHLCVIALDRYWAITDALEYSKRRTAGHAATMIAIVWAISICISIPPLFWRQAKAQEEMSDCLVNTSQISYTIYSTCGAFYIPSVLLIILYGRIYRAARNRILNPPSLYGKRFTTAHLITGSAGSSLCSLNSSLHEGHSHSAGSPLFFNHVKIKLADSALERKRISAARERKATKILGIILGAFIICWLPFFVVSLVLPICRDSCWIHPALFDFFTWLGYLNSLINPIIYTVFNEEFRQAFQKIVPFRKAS", "details": "Compound concentration 10.0 uM"}, "[2]": {"biological_target": "Serine/threonine-protein kinase WNK1 (Homo sapiens) (UniProt Q9H4A3)", "sequence (Q9H4A3 whole entry, looked up)": "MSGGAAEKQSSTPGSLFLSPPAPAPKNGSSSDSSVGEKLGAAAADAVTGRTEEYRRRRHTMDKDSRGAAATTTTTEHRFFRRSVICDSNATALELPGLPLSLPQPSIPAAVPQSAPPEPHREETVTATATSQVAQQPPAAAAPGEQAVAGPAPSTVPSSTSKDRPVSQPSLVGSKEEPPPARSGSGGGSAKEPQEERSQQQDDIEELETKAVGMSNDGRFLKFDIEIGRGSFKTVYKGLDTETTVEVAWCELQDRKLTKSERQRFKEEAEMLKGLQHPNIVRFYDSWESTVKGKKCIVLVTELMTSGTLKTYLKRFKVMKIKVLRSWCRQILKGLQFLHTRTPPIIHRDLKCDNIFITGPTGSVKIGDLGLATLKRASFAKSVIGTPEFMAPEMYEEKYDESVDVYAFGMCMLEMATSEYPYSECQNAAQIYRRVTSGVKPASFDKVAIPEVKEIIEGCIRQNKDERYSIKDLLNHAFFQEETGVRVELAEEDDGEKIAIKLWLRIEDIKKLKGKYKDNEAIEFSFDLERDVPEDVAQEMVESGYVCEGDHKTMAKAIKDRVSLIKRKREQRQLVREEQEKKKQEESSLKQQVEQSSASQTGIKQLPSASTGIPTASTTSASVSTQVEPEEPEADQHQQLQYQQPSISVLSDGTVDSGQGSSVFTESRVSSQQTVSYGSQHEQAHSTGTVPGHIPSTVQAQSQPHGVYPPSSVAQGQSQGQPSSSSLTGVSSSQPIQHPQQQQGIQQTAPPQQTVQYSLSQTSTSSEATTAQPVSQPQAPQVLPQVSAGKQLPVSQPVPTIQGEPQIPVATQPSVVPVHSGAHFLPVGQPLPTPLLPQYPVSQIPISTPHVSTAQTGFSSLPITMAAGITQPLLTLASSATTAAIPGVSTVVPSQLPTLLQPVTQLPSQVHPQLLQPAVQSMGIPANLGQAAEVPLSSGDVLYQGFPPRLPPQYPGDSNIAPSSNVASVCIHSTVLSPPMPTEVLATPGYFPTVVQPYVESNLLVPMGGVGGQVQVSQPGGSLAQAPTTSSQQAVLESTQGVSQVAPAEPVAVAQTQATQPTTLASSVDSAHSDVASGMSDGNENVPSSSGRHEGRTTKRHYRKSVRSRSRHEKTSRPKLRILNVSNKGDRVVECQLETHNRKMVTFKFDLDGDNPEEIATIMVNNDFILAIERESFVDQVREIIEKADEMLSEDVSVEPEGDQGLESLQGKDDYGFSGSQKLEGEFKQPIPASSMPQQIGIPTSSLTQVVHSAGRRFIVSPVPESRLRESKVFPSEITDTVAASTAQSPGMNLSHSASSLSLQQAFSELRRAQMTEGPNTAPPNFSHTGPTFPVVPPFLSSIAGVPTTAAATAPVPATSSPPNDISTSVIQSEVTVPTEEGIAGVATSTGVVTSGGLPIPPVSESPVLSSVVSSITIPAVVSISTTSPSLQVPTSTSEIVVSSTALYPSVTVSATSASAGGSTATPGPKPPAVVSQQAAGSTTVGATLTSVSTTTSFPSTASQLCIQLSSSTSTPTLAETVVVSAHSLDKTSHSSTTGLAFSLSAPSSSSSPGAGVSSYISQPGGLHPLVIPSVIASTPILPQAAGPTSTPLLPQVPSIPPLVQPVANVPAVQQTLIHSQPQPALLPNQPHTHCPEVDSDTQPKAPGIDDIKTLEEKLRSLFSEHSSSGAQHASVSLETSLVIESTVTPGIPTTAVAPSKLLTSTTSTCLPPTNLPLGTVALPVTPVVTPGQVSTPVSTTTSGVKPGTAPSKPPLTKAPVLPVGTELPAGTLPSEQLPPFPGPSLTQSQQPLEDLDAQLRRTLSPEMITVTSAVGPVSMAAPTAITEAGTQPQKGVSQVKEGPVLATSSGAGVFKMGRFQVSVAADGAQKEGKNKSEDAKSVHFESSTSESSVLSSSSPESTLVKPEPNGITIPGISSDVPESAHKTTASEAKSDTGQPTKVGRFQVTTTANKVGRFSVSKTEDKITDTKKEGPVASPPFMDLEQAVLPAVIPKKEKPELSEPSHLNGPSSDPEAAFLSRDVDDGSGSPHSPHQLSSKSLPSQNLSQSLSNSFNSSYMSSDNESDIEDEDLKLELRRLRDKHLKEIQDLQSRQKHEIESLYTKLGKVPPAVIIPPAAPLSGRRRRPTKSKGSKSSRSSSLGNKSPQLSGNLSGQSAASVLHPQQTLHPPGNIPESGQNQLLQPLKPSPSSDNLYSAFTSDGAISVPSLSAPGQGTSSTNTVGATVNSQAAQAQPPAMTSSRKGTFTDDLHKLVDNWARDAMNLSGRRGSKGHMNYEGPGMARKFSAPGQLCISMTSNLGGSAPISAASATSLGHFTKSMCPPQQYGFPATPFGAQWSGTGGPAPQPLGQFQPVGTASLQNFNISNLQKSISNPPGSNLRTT", "experiment": "WNK1 SGC Tm panel (DSF)", "details": "for ΔTm: Compound concentration 10.0 uM"}, "[3]": {"biological_target": "T1, Ribosyldihydronicotinamide dehydrogenase [quinone] (Homo sapiens) (UniProt P16083)", "T1 sequence (whole entry)": "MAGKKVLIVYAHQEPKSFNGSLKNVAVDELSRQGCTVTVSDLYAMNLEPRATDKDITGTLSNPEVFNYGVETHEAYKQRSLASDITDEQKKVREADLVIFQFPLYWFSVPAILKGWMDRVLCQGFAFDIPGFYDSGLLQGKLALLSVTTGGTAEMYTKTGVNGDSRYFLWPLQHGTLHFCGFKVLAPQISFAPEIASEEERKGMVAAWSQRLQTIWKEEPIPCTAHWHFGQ", "experiment": "NQO2 SGC Tm panel (DSF)", "details": "for ΔTm: Compound concentration 10.0 uM"}, "Peregrin (Homo sapiens)": {"biological_target": "T2, Peregrin (Homo sapiens) (UniProt P55201)", "T2 sequence (whole entry)": "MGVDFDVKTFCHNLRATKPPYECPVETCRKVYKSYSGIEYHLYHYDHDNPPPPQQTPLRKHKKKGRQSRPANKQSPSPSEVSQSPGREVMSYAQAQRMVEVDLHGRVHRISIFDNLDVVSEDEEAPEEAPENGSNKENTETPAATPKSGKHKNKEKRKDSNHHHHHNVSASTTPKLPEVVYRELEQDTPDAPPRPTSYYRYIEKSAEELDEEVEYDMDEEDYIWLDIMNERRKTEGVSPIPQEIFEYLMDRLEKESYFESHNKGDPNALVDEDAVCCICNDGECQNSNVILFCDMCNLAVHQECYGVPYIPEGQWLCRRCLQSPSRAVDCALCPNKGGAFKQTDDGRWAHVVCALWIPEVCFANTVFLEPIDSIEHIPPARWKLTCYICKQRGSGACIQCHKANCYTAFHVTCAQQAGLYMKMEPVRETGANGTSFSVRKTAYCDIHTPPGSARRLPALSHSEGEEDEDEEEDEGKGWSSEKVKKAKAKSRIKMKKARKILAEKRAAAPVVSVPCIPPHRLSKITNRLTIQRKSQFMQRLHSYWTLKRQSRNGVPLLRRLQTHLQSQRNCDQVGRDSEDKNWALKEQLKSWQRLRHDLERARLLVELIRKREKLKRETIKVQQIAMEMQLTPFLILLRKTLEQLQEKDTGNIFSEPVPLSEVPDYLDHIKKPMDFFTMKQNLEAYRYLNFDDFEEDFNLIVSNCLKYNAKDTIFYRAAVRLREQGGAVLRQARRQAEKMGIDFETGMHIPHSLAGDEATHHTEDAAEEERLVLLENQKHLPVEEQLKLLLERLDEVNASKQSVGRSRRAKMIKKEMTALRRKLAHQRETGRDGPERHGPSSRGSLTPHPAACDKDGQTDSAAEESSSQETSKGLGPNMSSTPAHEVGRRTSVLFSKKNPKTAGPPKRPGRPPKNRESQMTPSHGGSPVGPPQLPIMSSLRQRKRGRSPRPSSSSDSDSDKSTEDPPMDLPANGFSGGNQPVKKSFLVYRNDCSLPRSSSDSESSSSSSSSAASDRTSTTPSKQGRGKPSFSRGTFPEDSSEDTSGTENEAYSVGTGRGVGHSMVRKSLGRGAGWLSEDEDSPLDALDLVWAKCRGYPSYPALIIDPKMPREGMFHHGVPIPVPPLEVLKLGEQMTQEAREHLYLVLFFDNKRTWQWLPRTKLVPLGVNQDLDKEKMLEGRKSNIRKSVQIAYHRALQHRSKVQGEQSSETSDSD", "experiment": "BRPF1 SGC Tm panel (DSF)", "details": "for ΔTm: Compound concentration 10.0 uM"}, "[4]": {"biological_target": "T3, Membrane-associated tyrosine- and threonine-specific cdc2-inhibitory kinase (Homo sapiens) (UniProt Q99640)", "T3 sequence (whole entry)": "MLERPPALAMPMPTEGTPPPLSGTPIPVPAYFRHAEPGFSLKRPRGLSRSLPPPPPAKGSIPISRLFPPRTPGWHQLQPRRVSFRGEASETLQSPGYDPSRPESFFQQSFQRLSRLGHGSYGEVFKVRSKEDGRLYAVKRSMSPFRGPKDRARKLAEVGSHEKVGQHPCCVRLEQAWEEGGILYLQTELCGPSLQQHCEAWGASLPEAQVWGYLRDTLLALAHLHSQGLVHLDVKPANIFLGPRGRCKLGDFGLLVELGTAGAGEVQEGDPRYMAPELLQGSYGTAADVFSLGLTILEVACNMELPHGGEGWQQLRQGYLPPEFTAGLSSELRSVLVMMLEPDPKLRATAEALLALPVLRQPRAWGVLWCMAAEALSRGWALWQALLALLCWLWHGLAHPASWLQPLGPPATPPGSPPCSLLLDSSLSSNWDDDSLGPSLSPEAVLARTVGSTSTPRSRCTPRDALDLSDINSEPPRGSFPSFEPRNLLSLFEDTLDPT", "experiment": "PKMYT1 SGC Tm panel (DSF)", "details": "for ΔTm: Compound concentration 10.0 uM"}, "[5]": {"biological_target": "T4, Mitogen-activated protein kinase 13 (Homo sapiens) (UniProt O15264)", "T4 sequence (whole entry)": "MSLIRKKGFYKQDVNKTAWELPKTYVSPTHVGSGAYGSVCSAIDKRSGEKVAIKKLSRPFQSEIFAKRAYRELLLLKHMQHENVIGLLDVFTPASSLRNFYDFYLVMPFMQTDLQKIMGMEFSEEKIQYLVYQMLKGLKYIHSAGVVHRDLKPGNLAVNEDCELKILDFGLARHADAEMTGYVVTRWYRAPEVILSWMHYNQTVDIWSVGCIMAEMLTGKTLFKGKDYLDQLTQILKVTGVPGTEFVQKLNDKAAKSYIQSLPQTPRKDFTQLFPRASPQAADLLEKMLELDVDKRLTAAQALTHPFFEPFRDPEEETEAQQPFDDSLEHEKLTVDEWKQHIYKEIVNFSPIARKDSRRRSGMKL", "experiment": "MAPK13 SGC Tm panel (DSF)", "details": "for ΔTm: Compound concentration 10.0 uM"}}}
{"molecule": "CCC[C@H]1CNCc2c1[nH]c(=O)c(C#N)c2N1CCC2(CC1)CC2", "values": [{"measurement": "inhibition", "setting": "[1]", "value": 25, "unit": "%"}, {"measurement": "delta Tm Staurosporine positive control", "setting": "[2]", "value": 2.2}, {"measurement": "ΔTm", "setting": "[2]", "value": -0.456}, {"measurement": "delta Tm Staurosporine positive control", "setting": "[3]", "value": -1.11}, {"measurement": "ΔTm", "setting": "[3]", "value": -0.626}, {"measurement": "delta Tm Staurosporine positive control", "setting": "Peregrin (Homo sapiens)", "value": -0.107}, {"measurement": "ΔTm", "setting": "Peregrin (Homo sapiens)", "value": -0.754}, {"measurement": "delta Tm Staurosporine positive control", "setting": "[4]", "value": 0.0474}, {"measurement": "ΔTm", "setting": "[4]", "value": -0.47}, {"measurement": "delta Tm Staurosporine positive control", "setting": "[5]", "value": 8.03}, {"measurement": "ΔTm", "setting": "[5]", "value": 0.098}]}
{"molecule": "CCC[C@@H]1CNCc2c1[nH]c(=O)c(C#N)c2N1CCC2(CC1)CC2", "values": [{"measurement": "inhibition", "setting": "[1]", "value": 35, "unit": "%"}, {"measurement": "delta Tm Staurosporine positive control", "setting": "[2]", "value": 2.2}, {"measurement": "ΔTm", "setting": "[2]", "value": -0.301}, {"measurement": "delta Tm Staurosporine positive control", "setting": "[3]", "value": -1.11}, {"measurement": "ΔTm", "setting": "[3]", "value": -0.613}, {"measurement": "delta Tm Staurosporine positive control", "setting": "Peregrin (Homo sapiens)", "value": -0.107}, {"measurement": "ΔTm", "setting": "Peregrin (Homo sapiens)", "value": -0.426}, {"measurement": "delta Tm Staurosporine positive control", "setting": "[4]", "value": 0.0474}, {"measurement": "ΔTm", "setting": "[4]", "value": -0.384}, {"measurement": "delta Tm Staurosporine positive control", "setting": "[5]", "value": 8.03}, {"measurement": "ΔTm", "setting": "[5]", "value": 0.124}]}
